Source: US20030104507A1, “Method for detection of ATP” (priority 2001, published 2003)

Assays:
LucPpy = biological target: T1, LucPpy (Photinus pyralis, UniProt P08659); assay: Stability of reagent composition with LucPpy and detergent (RT, pH 7.0); assay type: biochemical; details: for Half-life of Luminescence Activity: Common firefly luciferase (P. pyralis); for Average Relative Light Units / Percent of Luminescence Remaining: LucPpy
T1 construct: purchased Promega E170A
Description: (§1) The detergents used for inhibition of endogenous ATPase activity in a sample also affect activity of luciferase. […] It is ultimately the extended stability of a reagent composition, comprising an ATPase inhibitor and a luciferase enzyme, which provides a composition useful for measuring ATP, in a sample or samples, over an extended period of time.
(§2) In this experiment, the stability of a reagent composition comprising wild type LucPpy was compared to the stability of a reagent composition comprising LucPpe2m146 at about 23° C. (room temperature). The various reagent compositions had varying detergent concentrations.
(§3) Two solutions were created as listed below. One contained the luciferase, luciferin, MgSO4, and buffer (reagent composition). The other solution contained media plus ATP (media solution).
(§4) 50 μg/ml enzyme (LucPpy is Promega catalog #E170A)
(§5) Detergent (at various concentrations, see table below)
(§6) For each reagent composition, all ingredients except the luciferase enzyme were assembled; the enzyme was then added immediately before the first luminescence reading was taken. Immediately after addition of enzyme to each reagent composition and for various timepoints thereafter, 100 μl aliquots of the reagent composition were added to wells of a 96-well microtitre luminometer plate in triplicate. To these were added 100 μl Media Solution containing the ATP. Luminescence was then immediately read on a Dynex MLX microtitreplate luminometer, 0.5 second reads per well. The average relative light unit values as well as the reaction half lives are listed below in Table I and the percent of original luminescence remaining at each timepoint is listed in Table J below. The timepoint at the top of the column indicates the time at which the first rlu measurement for the samples in that column was read. […] Times listed in Table I are the same for Table J. The values for sulfobetaine and for CTAB were generated on different days, they are presented with the control values generated in the same experiment.

LucPpe2m146 = assay: Stability of reagent composition with LucPpe2m146 and detergent (RT, pH 7.0); assay type: biochemical, Photuris pennsylvanica
Description: as §1, §2, §3, §4, §5, §6

## CCCCCCCCCCCC[N+](C)(C)Cc1ccccc1.[Br-] [BDDABr, Benzyldimethyldodecylammonium bromide]
LucPpy; conc. 0.100
  Half-life of Luminescence Activity: no activity
LucPpy; conc. 0.500
  Half-life of Luminescence Activity: no activity
LucPpy; 0.02%, 0.75 min (head r32)
  Average Relative Light Units: 2894.700 rlu
LucPpy; 0.02%, 0.75 min (times of Table I r32)
  Percent of Luminescence Remaining: 100.00%
LucPpy; 0.02%, 38 min (head r32)
  Average Relative Light Units: 0.035 rlu
LucPpy; 0.02%, 38 min (times of Table I r32)
  Percent of Luminescence Remaining: 0.00%
LucPpy; 0.02%, 70 min (head r32)
  Average Relative Light Units: 0.015 rlu
LucPpy; 0.02%, 70 min (times of Table I r32)
  Percent of Luminescence Remaining: 0.00%
LucPpy; 0.02%, 94 min (head r32)
  Average Relative Light Units: 0.016 rlu
LucPpy; 0.02%, 122 min (head r32)
  Average Relative Light Units: 0.011 rlu
LucPpy; 0.1%, 0.75 min (head r18)
  Average Relative Light Units: 0.007 rlu
LucPpy; 0.1%, 0.75 min (times of Table I r18)
  Percent of Luminescence Remaining: 100.00%
LucPpy; 0.5%, 0.75 min (head r5)
  Average Relative Light Units: 0.001 rlu
LucPpy; 0.5%, 0.75 min (times of Table I r5)
  Percent of Luminescence Remaining: 100.00%
LucPpe2m146; LucPpe2m146, 0.02%, 1.0 min (head r67)
  Average Relative Light Units: 26548.60 rlu
LucPpe2m146; LucPpe2m146, 0.02%, 1.0 min (times of Table I r67)
  Percent of Luminescence Remaining: 100.00%
LucPpe2m146; LucPpe2m146, 0.02%, 34 min (head r67)
  Average Relative Light Units: 26272.87 rlu
LucPpe2m146; LucPpe2m146, 0.02%, 34 min (times of Table I r67)
  Percent of Luminescence Remaining: 98.96%
LucPpe2m146; LucPpe2m146, 0.02%, 65 min (head r67)
  Average Relative Light Units: 25766.43 rlu
LucPpe2m146; LucPpe2m146, 0.02%, 65 min (times of Table I r67)
  Percent of Luminescence Remaining: 97.05%
LucPpe2m146; LucPpe2m146, 0.02%, 115 min (head r67)
  Average Relative Light Units: 24155.00 rlu
LucPpe2m146; LucPpe2m146, 0.02%, 115 min (times of Table I r67)
  Percent of Luminescence Remaining: 90.98%
LucPpe2m146; LucPpe2m146, 0.02%, 175 min (head r67)
  Average Relative Light Units: 25891.70 rlu
LucPpe2m146; LucPpe2m146, 0.02%, 175 min (times of Table I r67)
  Percent of Luminescence Remaining: 97.53%
LucPpe2m146; LucPpe2m146, 0.02%, 238 min (head r67)
  Average Relative Light Units: 24959.1 rlu
LucPpe2m146; LucPpe2m146, 0.02%, 238 min (times of Table I r67)
  Percent of Luminescence Remaining: 94.01%
LucPpe2m146; LucPpe2m146, 0.02%, 286 min (head r67)
  Average Relative Light Units: 24510.1 rlu
LucPpe2m146; LucPpe2m146, 0.02%, 286 min (times of Table I r67)
  Percent of Luminescence Remaining: 92.32%
LucPpe2m146; LucPpe2m146, 0.1%, 1.0 min (head r54)
  Average Relative Light Units: 29.71 rlu
LucPpe2m146; LucPpe2m146, 0.1%, 1.0 min (times of Table I r54)
  Percent of Luminescence Remaining: 100.00%
LucPpe2m146; LucPpe2m146, 0.1%, 34 min (head r54)
  Average Relative Light Units: 66.09 rlu
LucPpe2m146; LucPpe2m146, 0.1%, 34 min (times of Table I r54)
  Percent of Luminescence Remaining: 222.47%
LucPpe2m146; LucPpe2m146, 0.1%, 65 min (head r54)
  Average Relative Light Units: 62.19 rlu
LucPpe2m146; LucPpe2m146, 0.1%, 65 min (times of Table I r54)
  Percent of Luminescence Remaining: 209.32%
LucPpe2m146; LucPpe2m146, 0.1%, 115 min (head r54)
  Average Relative Light Units: 45.18 rlu
LucPpe2m146; LucPpe2m146, 0.1%, 115 min (times of Table I r54)
  Percent of Luminescence Remaining: 152.09%
LucPpe2m146; LucPpe2m146, 0.1%, 175 min (head r54)
  Average Relative Light Units: 33.89 rlu
LucPpe2m146; LucPpe2m146, 0.1%, 175 min (times of Table I r54)
  Percent of Luminescence Remaining: 114.06%
LucPpe2m146; LucPpe2m146, 0.1%, 238 min (head r54)
  Average Relative Light Units: 34.46 rlu
LucPpe2m146; LucPpe2m146, 0.1%, 238 min (times of Table I r54)
  Percent of Luminescence Remaining: 115.98%
LucPpe2m146; LucPpe2m146, 0.1%, 286 min (head r54)
  Average Relative Light Units: 126.90 rlu
LucPpe2m146; LucPpe2m146, 0.1%, 286 min (times of Table I r54)
  Percent of Luminescence Remaining: 427.13%
LucPpe2m146; LucPpe2m146, 0.5%, 15 min (head r41)
  Average Relative Light Units: 2.040 rlu
LucPpe2m146; LucPpe2m146, 0.5%, 15 min (times of Table I r41)
  Percent of Luminescence Remaining: 100.00%
LucPpe2m146; LucPpe2m146, 0.5%, 72 min (head r41)
  Average Relative Light Units: 1.140 rlu
LucPpe2m146; LucPpe2m146, 0.5%, 72 min (times of Table I r41)
  Percent of Luminescence Remaining: 55.90%
LucPpe2m146; LucPpe2m146, 0.5%, 124 min (head r41)
  Average Relative Light Units: 0.998 rlu
LucPpe2m146; LucPpe2m146, 0.5%, 124 min (times of Table I r41)
  Percent of Luminescence Remaining: 48.93%
LucPpe2m146; LucPpe2m146, 0.5%, 190 min (head r41)
  Average Relative Light Units: 0.899 rlu
LucPpe2m146; LucPpe2m146, 0.5%, 190 min (times of Table I r41)
  Percent of Luminescence Remaining: 44.07%
LucPpe2m146; LucPpe2m146, 0.5%, 251 min (head r41)
  Average Relative Light Units: 1.042 rlu
LucPpe2m146; LucPpe2m146, 0.5%, 251 min (times of Table I r41)
  Percent of Luminescence Remaining: 51.10%
